The test system of data set [1] is Tagia sp. Particulars: acute; duration: 14 days; mortality.
The test system of data set [2] is Bibionidae. To be noted: chronic/long-term; duration: 28 days.
Data set [3] relates to Colinus virginianus. Particulars: oral.
Data set [4] deals with Daphnia magna. To be noted: chronic/long-term; duration: 21 days; reproduction.
Data set [5] deals with Oncorhynchus mykiss.
Data set [6] concerns Apis mellifera. Particulars: acute, duration: 48 hours, mortality.
The test system of data set [7] is Rattus norvegicus.
Data set [8] relates to Canidae. Particulars: oral, Dog Other.
Data set [9] relates to Lepomis macrochirus. To be noted: acute; duration: 96 hours; mortality.

The values that follow come from EPA's ToxValDB 9.5 (doi:10.2903/j.efsa.2015.4194).

≈ marks a conversion by molar mass, not a printed value. Where only a bound is given, the exact number is not on record here.

With `CC1(c2ccc(Oc3ccccc3)cc2)OC(=O)N(Nc2ccccc2)C1=O` (centres undefined) [Famoxadone], the LC50 stood at 470 mg/kg in data set [1]; 0.011 µg/mL (≈ 0.0294 µM) in [5] (acute, duration: 96 hours, mortality); 0.013 µg/mL (≈ 0.0347 µM) in data set [9]. The NOEC worked out at 0.01 mg/L in data set [2]; 5620 mg/kg-day in data set [3] (short-term, diet); 0.0037 mg/L in data set [4]; 0.014 mg/L in data set [5] (chronic/long-term, duration: 90 days, growth). The LD50 in data set [3] (acute, mortality) was greater than 2250 mg/kg-day; in data set [6] (dermal) it was greater than 25 µg/piece; in data set [6] (oral, unspecified) it was greater than 63 µg/piece; in data set [7] (acute, mortality) it was greater than 5000 mg/kg. For the same compound, the NOAEL in data set [7] (developmental, development) worked out at 11.3 mg/kg-day; in data set [8] (chronic, duration: 1 years, ophthalmoscopic examination), 1.2 mg/kg-day; in data set [8] (subchronic, duration: 90 days, clinical signs), 10 mg/kg-day.

The term NOAEL denotes the highest tested level that showed no adverse finding.
